This note sets out measurements from patent US7122173B2, “Agent for the treatment of bladder irritative symptoms accompanied by benign prostatic hyperplasia” (Kyowa Hakko Kogyo Co., Ltd., priority 2001, dated 2006).

In the assay the test system is rats with partial urethra obstruction. Kind of assay: Increased urinary frequency accompanied by partial bladder outlet obstruction (metabolism cage urination test). The class given is in vivo, rat. The method, then: The test was carried out in accordance with the method of Saito et al. (J. Urol., 150: 1045–1051 (1993)). Male SD rats of 8 to 9 weeks of age (supplied by Japan SLC) were used in the test. Five to seven animals of these rats were put in each metal cage and reared by allowing them to freely take commercially available chow and water, in a rearing room at a room temperature of from 19 to 25° C. and a humidity of from 30 to 70% under illumination for 12 hours (from 7 a.m. to 7 p.m.) per day. Partial urethra obstruction was induced in rats as a model of outlet obstruction mimicking BPH. Each rat was anesthetized by intraperitoneal administration of 50 mg/kg of pentobarbital sodium (Dainippon Pharmaceutical) and placed in dorsal position. The abdomen was cut in a length of about 1 cm by midline incision to expose the bladder, prostate and the urethra. The bladder neck and bladder base were peeled from the prostate, and two surgical sutures (No. 3, Natsume Seisakusho) were passed behind the urethra base. A polyethylene tube (PE-200; Becton Dickinson) was placed along the urethra, and the urethra was mildly double-ligated together with the tube. The ligation was carried out in such a manner that the urethra was not pressed by the polyethylene tube and the sutures were not loosened. The polyethylene tube was pulled out and the urethra was partially obstructed. The incised part of the abdomen was sutured with the surgical suture. Five to seven days after the partial urethra constriction operation, the rats subjected to partial urethra obstruction and those subjected to sham-operation were put in metabolism cages (KN-649, Natsume Seisakusho). For acclimatization, rats were reared for 1 day with free drinking and feeding, and the urination test was started on the next day. Using an electronic force balance (HF-200; A and D), the amount of urination by rats was continuously measured as weight, and -recorded on a thermal array recorder (RTA-1200; Nihon Kohden) via a direct current amplifier (AD-641G; Nihon Kohden). The light period (9 to 18 o'clock) under illumination and the dark period (19 to 4 o'clock) under lights off were used as the data collecting periods, and the number of micturition and the urinary volume during these periods were measured to calculate urinary frequency (frequency of micturition per 9 hours), voided volume per micturition and total urine volume as the measuring parameters. In this case, the voided volume per micturition was calculated by dividing the total urine volume per 9 hours by the urinary frequency per 9 hours. Compound 1 or a solvent (0.5 w/v % aqueous methyl cellulose 400 cP (average viscosity: 400 centipoises) solution) was administered twice on the next day between 8 to 9 o'clock and 18 to 19 o'clock, and the number of micturition and urine volume during 9 to 18 o'clock and 19 to 4 o'clock were measured to obtain measured values similarly to the case of the previous day. In the sham-operation group, the urinary frequency, voided volume per micturition and the total urine volume on the first day of the urination test were compared with those in the urethra obstruction group. The urinary frequency, voided volume per micturition and the total urine volume in each group were calculated as average ±standard error.

Setting [1] is: Dark period (active period), after administration.
The mark [2] stands for this setting: Dark period (active period), before administration (baseline of the Compound 1 group).
Setting [3] is: Light period (inactive period), after administration.
Where [4] appears, read: Light period (inactive period), before administration (baseline of the Compound 1 group).
The mark [5] stands for this setting: rats with partial urethra obstruction.

Regarding `C[C@](O)(C(=O)Nc1cccc2c1C(=O)c1sccc1CS2(=O)=O)C(F)(F)F` [Compound 1, (S)-(+)-N-(5,5-dioxido-10-oxo-4,10-dihydrothieno[3,2-c][1]benzothiepin-9-yl)-3,3,3-trifluoro-2-hydroxy-2-methylpropanamide], under setting [1], the Total urine volume was determined as 4.83 ± 0.83 mL/9 h, the Urinary frequency is 6.7 ± 1.2 micturitions/9 h and the “Voided volume per micturition” value worked out at 0.771 ± 0.160 mL. Further, under setting [2], the Total urine volume was 3.57 ± 0.57 mL/9 h, the Urinary frequency is given as 10.0 ± 1.3 micturitions/9 h and the “Voided volume per micturition” value was found to be 0.362 ± 0.038 mL. In addition, under setting [3], the Total urine volume stood at 4.76 ± 0.78 mL/9 h, the Urinary frequency is 5.3 ± 0.4 micturitions/9 h and the “Voided volume per micturition” value amounted to 0.899 ± 0.127 mL. Further, under setting [4], the Total urine volume is listed as 4.80 ± 0.31 mL/9 h, the Urinary frequency is 8.7 ± 0.8 micturitions/9 h and the “Voided volume per micturition” value is 0.577 ± 0.064 mL. Under setting [5], the “Effect on urinary frequency (in words)” value is listed as “significantly reduced urinary frequency” and the “Effect on voided volume per micturition (in words)” value is recorded as “tended to increase voided volume per micturition”.
